# Assay results taken from PMC8306139, “A Novel Dialkylamino-Functionalized Chalcone, DML6, Inhibits Cervical Cancer Cell Proliferation, In Vitro, via Induction of Oxidative Stress, Intrinsic Apoptosis and Mitotic Catastrophe” (Molecules, 2021).
# Like-named read-outs stand apart in the source and are kept apart here.
# Tests used:
# A549 = test: MTT assay, A549; type: cell-based; details: read-out: IC50 ± SD Lung A549
# Experimental: (§1) The concentration of the tested compounds that produced a 50% inhibition of cell growth (IC50) was determined.
# (§2) A panel of cancer cell lines, including cervical (OV2008 and HeLa), breast (MDA-MB-231), lung (A549) and colon (LOVO), prostate (DU145), human embryonic kidney cells (HEK293), human colon fibroblast cells (CRL1459), and Chinese hamster ovary cells (CHO), were grown as adherent monolayers in flasks containing Dulbecco’s modified Eagle medium (DMEM), supplemented with 10% fetal bovine serum (FBS) and 1% penicillin and streptomycin, in a humidified incubator with 5% CO2 at 37 °C.
# (§3) The cells were seeded evenly (180 μL/well) in 96-well plates, at a density of 3000–5000 cells/well and incubated with serial dilutions of the compounds ranging from 0.1 to 100 μM. The MTT dye (4 mg/ml) was added after 72 h of incubation and incubated with the cells for an additional 4 h at 37 °C, allowing the viable cells to biotransform the yellow-colored MTT into dark-blue formazan crystals. Following incubation, the medium was aspirated, and the formazan crystals were dissolved by adding 100 μL of DMSO to each well. Cytation™ 5 and Cytation™ 7 multi-mode detector (Bio Tek Instruments, Winooski, VT, USA) was used to determine the absorbance readings at a wavelength of 570 nm. The IC50 values were determined based on 3 separate experiments, with each experiment carried out in triplicate.
# HEK293 = test: MTT assay, HEK293; type: cell-based, human; details: read-out: IC50 ± SD Kidney HEK293
# Experimental: as §1, §2, §3
# OV2008 = test: MTT assay, OV2008; type: cell-based; details: 72 h, read-out: IC50 ± SD Cervical OV2008
# Experimental: as §1, §2
# (§4) The cells were seeded evenly (180 μL/well) in 96-well plates, at a density of 3000–5000 cells/well and incubated with serial dilutions of the compounds ranging from 0.1 to 100 μM. The MTT dye (4 mg/ml) was added after 72 h of incubation and incubated with the cells for an additional 4 h at 37 °C, allowing the viable cells to biotransform the yellow-colored MTT into dark-blue formazan crystals. Following incubation, the medium was aspirated, and the formazan crystals were dissolved by adding 100 μL of DMSO to each well. Cytation™ 5 and Cytation™ 7 multi-mode detector (Bio Tek Instruments, Winooski, VT, USA) was used to determine the absorbance readings at a wavelength of 570 nm. The IC50 values were determined based on 3 separate experiments, with each experiment carried out in triplicate. The selectivity of the compounds was determined by comparing their IC50 values in cervical cancer compared to the normal epithelial cell lines, HEK293, CHO, and CRL1459.
# MDA-MB-231 = test: MTT assay, MDA-MB-231; type: cell-based; details: read-out: IC50 ± SD Breast MDA-MB-231
# Experimental: as §1, §2, §3
# LOVO = test: MTT assay, LOVO; type: cell-based; details: 72 h, read-out: IC50 ± SD Colon LOVO
# Experimental: as §1, §2, §3
# DU145 = test: MTT assay, DU145; type: cell-based; details: Homo sapiens, DU-145, 72 h, read-out: IC50 ± SD Prostate DU145
# Experimental: as §1, §2, §3
# HeLa = test: MTT assay, HeLa; type: cell-based; details: 72 h, read-out: IC50 ± SD Cervical HeLa
# Experimental: Table S1. The antiproliferative efficacy of the DML1-DML12 compounds on the proliferation of cervical cancer cell line.
# Figure S1. The efficacy of DML6 in HeLa cancer cells. The cell-viability curve produced by HeLa cells treated with
# vehicle (0 μM), 5 or 10 μM of DML6 after 72 h of incubation. Cell survival was determined using the MTT assay. The
# IC50 values are represented as the means ± SD of three independent experiments performed in triplicate. […]
# cancer cell lines = test: MTT assay, panel of cancer cell lines; type: cell-based
# Experimental: as §1, §2, §4
Compound,"IC50 (A549; Homo sapiens, A549, 72 h) [µM]","IC50 (MDA-MB-231; Homo sapiens, MDA-MB-231, 72 h) [µM]","IC50 (LOVO; Homo sapiens, LoVo) [µM]",melting point [°C],IC50 (DU145) [µM],"IC50 (HeLa; Homo sapiens, HeLa) [µM]",IC50 (A549; 72 h) [µM],IC50 (MDA-MB-231; 72 h) [µM],IC50 (LOVO) [µM],IC50 (HeLa) [µM],"IC50 (HEK293; Homo sapiens, HEK293, 72 h) [µM]",IC50 (OV2008) [µM],IC50 (HEK293; 72 h) [µM],"anti-proliferative efficacy in a wide range of cancer cell lines, compared to normal cells (cancer cell lines)"
"COc1ccc(C2CC(c3ccc(N(C)C)cc3)=NN2c2ccccc2)cc1OC (stereo not shown) [DML10, 4-(5-(3,4-dimethoxyphenyl)-1-phenyl-4,5-dihydro-1H-pyrazol-3-yl)-N,N-dimethylaniline]",> 100,> 100,> 100,134,> 100,> 100,–,–,–,–,> 100,> 100,–,–
"CN(C)c1ccc(/C=C/C(=O)c2ccccn2)cc1 [DML1, (E)-3-[4-(dimethylamino)phenyl]-1-(pyridin-2-yl)prop-2-en-1-one]",> 100,> 100,> 100,126,> 100,> 70,–,–,–,70.7 ± 2.19,> 100,> 100,–,–
"CN(C)c1ccc(C2=NN(c3ccccc3)C(c3ccccn3)C2)cc1 (stereo not shown) [DML7, N,N-dimethyl-4-[1-phenyl-5-(pyridin-2-yl)-4,5-dihydro-1H-pyrazol-3-yl]aniline]",> 100,> 100,> 100,179,> 100,> 100,–,–,–,–,> 100,> 100,–,–
"CCN(CC)c1ccc(/C=C/C(=O)c2ccccn2)cc1 [DML2, (E)-3-[4-(diethylamino)phenyl]-1-(pyridin-2-yl)prop-2-en-1-one]",> 100,> 100,> 100,142,> 100,> 100,–,–,–,–,> 100,> 100,–,–
"CCN(CC)c1ccc(C2=NN(c3ccccc3)C(c3ccc(OC)cc3)C2)cc1 (stereo not shown) [DML11, N,N-diethyl-4-(5-(4-methoxyphenyl)-1-phenyl-4,5-dihydro-1H-pyrazol-3-yl)aniline]",> 100,> 100,> 100,121,> 100,> 100,–,–,–,–,> 100,> 100,–,–
"CCN(CC)c1ccc(C2=NN(c3ccccc3)C(c3ccccn3)C2)cc1 (stereo not shown) [DML8, N,N-diethyl-4-[1-phenyl-5-(pyridin-2-yl)-4,5-dihydro-1H-pyrazol-3-yl]aniline]",> 100,> 100,> 100,188,> 100,> 100,–,–,–,–,> 100,> 100,–,–

# More lines, main results first:
"IC50 (A549; Homo sapiens, A549, 72 h) [µM]","IC50 (MDA-MB-231; Homo sapiens, MDA-MB-231, 72 h) [µM]","IC50 (LOVO; Homo sapiens, LoVo) [µM]",melting point [°C],IC50 (DU145) [µM],"IC50 (HeLa; Homo sapiens, HeLa) [µM]",IC50 (A549; 72 h) [µM],IC50 (MDA-MB-231; 72 h) [µM],IC50 (LOVO) [µM],IC50 (HeLa) [µM],Compound,"IC50 (HEK293; Homo sapiens, HEK293, 72 h) [µM]",IC50 (OV2008) [µM],IC50 (HEK293; 72 h) [µM],"anti-proliferative efficacy in a wide range of cancer cell lines, compared to normal cells (cancer cell lines)"
> 100,> 100,> 100,147,> 100,> 100,–,–,–,–,"COc1ccc(C2CC(c3ccc(N(C)C)cc3)=NN2c2ccccc2)cc1 (stereo not shown) [DML9, 4-(5-[4-methoxyphenyl]-1-phenyl-4,5-dihydro-1H-pyrazol-3-yl)-N,N-dimethylaniline]",> 100,> 100,–,–
> 100,> 100,> 100,124,> 100,> 100,–,–,–,–,"CN(C)c1ccc(C2=NN(c3ccccc3)C(c3ccc(Cl)cc3Cl)C2)cc1 (stereo not shown) [DML12, 4-(5-(2,4-dichlorophenyl)-1-phenyl-4,5-dihydro-1H-pyrazol-3-yl)-N,N-dimethylaniline]",> 100,> 100,–,–
45 ± 22.6,26.7 ± 23.9,66.3 ± 4.6,86,22.5 ± 4.9,39.5 ± 11.4,66.3 ± 4.6,26.2 ± 23.9,45 ± 22.6,–,"COc1ccc(C(=O)/C=C/c2ccc(N(C)C)cc2)cc1OC [DML4, (E)-1-[3,4-dimethoxyphenyl]-3-(4-(dimethylamino)phenyl)prop-2-en-1-one]",> 65,13.8 ± 7,68.5 ± 2.1,moderate to good anti-proliferative efficacy
> 100,> 100,> 100,–,> 100,> 100,–,–,–,–,"COc1ccc(C(=O)/C=C/c2ccc(N(C)C)cc2)cc1 [DML3, (E)-3-[4-(dimethylamino)phenyl]-1-(4-methoxyphenyl)prop-2-en-1-one]",> 100,> 100,–,–
